From EP4786487A1, “PEPTIDE” (Peptidream Inc, priority 2023, dated 2025) come the findings set out here.

One experiment deals with T1, GDF-11 (Homo sapiens, UniProt O95390).
T1 construct: purchased R&D systems 1958-GD-G8/CF
T1 sequence (O95390 299-407): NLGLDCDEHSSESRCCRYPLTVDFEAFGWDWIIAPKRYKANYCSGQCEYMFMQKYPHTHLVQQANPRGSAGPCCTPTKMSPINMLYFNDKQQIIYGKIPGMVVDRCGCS
The experiment is described as follows: HepG2 reporter gene assay, Evaluation Procedure (2): 2-concentrations assay, GDF-11 inhibition. Type of experiment: cell-based. To be noted: for inhibition at 0.03 µM: HepG2, peptide 30nM, read-out: GDF11 Inhibition 30nM; for inhibition at 0.03 µM / inhibition at 0.1 µM: GDF-11 10 ng/mL; for inhibition at 0.1 µM: HepG2, peptide 100nM, read-out: GDF11 Inhibition 100nM; for inhibition: read-out: inhibition rate (GDF-11 inhibition assay). The method, boiled down:
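HepG2 cells carrying the transfected pGL3(CAGA)12-luc reporter, a pGL3 vector with luciferase placed downstream of 12 CAGA repeats, were stimulated with GDF-11 at a final 10 ng/mL together with test peptide. Blank wells received no GDF-11 and no peptide. Plates were incubated 20 to 24 hours at 37°C with 5% CO2. Luminescence from One-Glo substrate was read to calculate percent inhibition.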

The target of another experiment is T2, Myostatin (Homo sapiens, UniProt O14793).
T2 construct: active myostatin (also called mature myostatin) is a homodimer consisting of two C-terminal growth factor domains; purchased R&D systems 788-G8/CF
T2 sequence (O14793 267-375): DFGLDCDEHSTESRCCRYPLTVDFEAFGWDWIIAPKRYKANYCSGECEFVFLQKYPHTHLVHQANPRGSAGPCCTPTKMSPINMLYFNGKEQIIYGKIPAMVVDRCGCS
Kind of experiment: HepG2 reporter gene assay, Evaluation Procedure (2): 2-concentrations assay, myostatin inhibition. Type of experiment: cell-based. Particulars: HepG2. The method, boiled down: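 Myostatin inhibition was measured in a luciferase reporter assay using HepG2 cells transfected with a pGL3 vector containing 12 CAGA repeats upstream of luciferase. After 20 to 24 hours with 10 ng/mL myostatin, cells received One-Glo:PBS (1:1) at 100 µL/well, were shaken for 5 min, and 20 µL/well was moved to 384-well plates and read on an Envision 2104.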
For orientation: A reporter such as luciferase makes a cellular process visible.

Where [1] appears, read: peptide 30nM, Myostatin 10 ng/mL, read-out: Myostatin Inhibition 30nM.
Setting [2] is: peptide 100nM, Myostatin 10 ng/mL, read-out: Myostatin Inhibition 100nM.
Where [3] appears, read: HepG2, first GDF-11 column of Table 7-3/7-4, GDF-11 10 ng/mL, peptide at the lower of the 2 concentrations.
Where [4] appears, read: HepG2, second GDF-11 column of Table 7-3/7-4, GDF-11 10 ng/mL, peptide at the higher of the 2 concentrations.
Setting [5] is: Table 7-3/7-4, myostatin 10 ng/mL, peptide at the higher of the 2 concentrations, read-out: inhibition rate (myostatin inhibition assay).
Setting [6] is: Table 7-3/7-4, myostatin 10 ng/mL, peptide at the lower of the 2 concentrations, read-out: inhibition rate (myostatin inhibition assay).

SMILES strings stand for the structures. Read-outs that look alike come from different tables or passages of the source. Starred links: 1 amine or outer side, 2 acyl side, 3 side chain; linkers in the order of their positions; H or OH if unused. Positions of bridges follow the written chain, without caps; N, C: chain ends. Non-standard residues stand in square brackets, D forms with d. Residues, ends and D or L forms follow the SMILES beside them. *: point of attachment. Phe(3-OCH2COOH) = N[C@@H](Cc1cccc(OCC(=O)O)c1)C(=O)O; Piperidine(4-CH2CH2CONH2) = NC(=O)CCC1CCN(*)CC1; Phe(4-COOH) = N[C@@H](Cc1ccc(C(=O)O)cc1)C(=O)O; Trp(6-aza) = N[C@@H](Cc1c[nH]c2cnccc12)C(=O)O; Trp(7-aza) = N[C@@H](Cc1c[nH]c2ncccc12)C(=O)O; Piperidinyl(4-CH2COOH) = O=C(O)CC1CCN(*)CC1; 3Pal(6-NH2) = Nc1ccc(C[C@H](N)C(=O)O)cn1; Gly(decyl) = CCCCCCCCCC[C@H](N)C(=O)O; Gly(N(CH2)3COOH) = O=C(O)CCCNCC(=O)O; X1 = CCCCCCC[C@H](N[*:1])C(=O)[*:2]; NMeF = CN[C@@H](Cc1ccccc1)C(=O)O; 3Pal = N[C@@H](Cc1cccnc1)C(=O)O; 4Pal = N[C@@H](Cc1ccncc1)C(=O)O; NMeE = CN[C@@H](CCC(=O)O)C(=O)O; NMeA = CN[C@@H](C)C(=O)O; Dap = NC[C@H](N)C(=O)O; NPrGly = CCCNCC(=O)O; Nme = COCCNCC(=O)O; Sar = CNCC(=O)O

The term inhibition denotes the drop in the measured response relative to a control, in per cent. Consider `CC[C@H](C)[C@@H]1NC(=O)[C@H](Cc2ccccc2)N(C)C(=O)[C@H](Cc2ccc(O)cc2)NC(=O)[C@H](Cc2c[nH]c3ccccc23)NC(=O)[C@H](CCCNC(=N)N)NC(=O)[C@H](CN)NC(=O)CSC[C@@H](C(N)=O)NC(=O)[C@H](Cc2ccccc2)N(C)C(=O)[C@H](C)N(C)C(=O)[C@H](CC(C)C)NC(=O)[C@H](Cc2ccccc2)N(C)C(=O)[C@H](CCCNC(=N)N)NC(=O)[C@H](Cc2ccc(O)cc2)NC(=O)[C@H](Cc2ccc(O)cc2)NC(=O)CN(C)C1=O` [Myostatin_000099_01Dap] ({CH2CO}-[Dap]RWY[NMeF]I[Sar]YYR[NMeF]L[NMeA][NMeF]C-NH2; thioether N-15), for which the inhibition at 0.03 µM at GDF-11 is 0%; at Myostatin (setting [1]), 18%. Also, the inhibition at 0.1 µM on GDF-11 came out at 0%; on Myostatin (setting [2]), 62%.
Regarding `CCCCCCCCCC[C@@H]1NC(=O)[C@H](Cc2ccccc2)N(C)C(=O)[C@H](CCCNC(=N)N)NC(=O)[C@H](Cc2ccc(C(=O)O)cc2)NC(=O)[C@H](Cc2cccc(OCC(=O)O)c2)NC(=O)CN(CCC)C(=O)[C@H]([C@@H](C)CC)NC(=O)[C@H](Cc2ccccc2)N(C)C(=O)[C@H](Cc2ccc(O)cc2)NC(=O)[C@H](Cc2c[nH]c3ccccc23)NC(=O)[C@H](C)NC(=O)[C@H](C)NC(=O)CSC[C@H](C(=O)N2CCC(CC(=O)O)CC2)NC(=O)[C@H](Cc2ccccc2)N(C)C(=O)[C@H](CCC(=O)O)N(C)C1=O` [Myostatin_99_v334] ({CH2CO}-AAWY[NMeF]I[NPrGly][Phe(3-OCH2COOH)][Phe(4-COOH)]R[NMeF][Gly(decyl)][NMeE][NMeF][dC]-{Piperidinyl(4-CH2COOH)}; thioether N-15), the inhibition on GDF-11 (setting [3]) and on GDF-11 (setting [4]) was 0% throughout. The inhibition at 0.1 µM at Myostatin (setting [5]) is 99%. On Myostatin (setting [6]), the inhibition at 0.03 µM is 90%.
On to `CCCCCCC[C@@H]1NC(=O)[C@H](Cc2ccccc2)N(C)C(=O)[C@H](CCCNC(=N)N)NC(=O)[C@H](Cc2ccc(C(=O)O)cc2)NC(=O)[C@H](Cc2cccc(OCC(=O)O)c2)NC(=O)CN(C)C(=O)[C@H]([C@@H](C)CC)NC(=O)[C@H](Cc2ccccc2)N(C)C(=O)[C@H](Cc2ccc(O)cc2)NC(=O)[C@H](Cc2c[nH]c3cnccc23)NC(=O)[C@H](C)NC(=O)[C@H](C)NC(=O)CSC[C@H](C(=O)O)NC(=O)[C@H](Cc2ccccc2)N(C)C(=O)[C@H](C)N(C)C1=O` [Myostatin_99_v208] ({CH2CO}-AA[Trp(6-aza)]Y[NMeF]I[Sar][Phe(3-OCH2COOH)][Phe(4-COOH)]R[NMeF][X1][NMeA][NMeF][dC]-OH; thioether N-15), for which the inhibition at 0.03 µM at GDF-11 was 0%; at Myostatin (setting [1]) it was 98%. In addition, the inhibition at 0.1 µM turned out to be 20% on GDF-11 and 100% at Myostatin (setting [2]).
`CC[C@H](C)[C@@H]1NC(=O)[C@H](Cc2ccccc2)N(C)C(=O)[C@H](Cc2ccc(N)nc2)NC(=O)[C@H](Cc2c[nH]c3ncccc23)NC(=O)[C@H](C)NC(=O)CN(CCCC(=O)O)C(=O)CSC[C@H](C(N)=O)NC(=O)[C@H](Cc2ccccc2)N(C)C(=O)[C@H](C)N(C)C(=O)[C@H](CC(C)C)NC(=O)[C@H](Cc2ccccc2)N(C)C(=O)[C@H](CCCNC(=N)N)NC(=O)[C@H](Cc2ccc(C(=O)O)cc2)NC(=O)[C@H](Cc2ccccc2)NC(=O)CN(C)C1=O` [Myostatin_99_Variant_24] ({CH2CO}-[Gly(N(CH2)3COOH)]A[Trp(7-aza)][3Pal(6-NH2)][NMeF]I[Sar]F[Phe(4-COOH)]R[NMeF]L[NMeA][NMeF][dC]-NH2; thioether N-15): the inhibition at 0.03 µM at GDF-11 stood at 0%; on Myostatin (setting [1]), 1%. Moreover, the inhibition at 0.1 µM at GDF-11 was found to be 0%; on Myostatin (setting [2]), 54%.
As to `CC[C@H](C)[C@@H]1NC(=O)[C@H](Cc2ccccc2)N(C)C(=O)[C@H](Cc2ccc(O)cc2)NC(=O)[C@H](Cc2c[nH]c3ccccc23)NC(=O)[C@H](C)NC(=O)CN(CCCC(=O)O)C(=O)CSC[C@H](C(N)=O)NC(=O)[C@H](Cc2ccccc2)N(C)C(=O)[C@H](C)N(C)C(=O)[C@H](CC(C)C)NC(=O)[C@H](Cc2ccccc2)N(C)C(=O)[C@H](CCCNC(=N)N)NC(=O)[C@H](Cc2cccnc2)NC(=O)[C@H](Cc2ccc(O)cc2)NC(=O)CN(C)C1=O` [Myostatin_99_Variant_16] ({CH2CO}-[Gly(N(CH2)3COOH)]AWY[NMeF]I[Sar]Y[3Pal]R[NMeF]L[NMeA][NMeF][dC]-NH2; thioether N-15), the inhibition at 0.03 µM at GDF-11 came out at 0%; at Myostatin (setting [1]) it was 34%. In addition, the inhibition at 0.1 µM at GDF-11 amounted to 4%; at Myostatin (setting [2]), 75%.
For the compound `CCCCCCC[C@@H]1NC(=O)[C@H](Cc2ccccc2)N(C)C(=O)[C@H](CCCNC(=N)N)NC(=O)[C@H](Cc2ccc(C(=O)O)cc2)NC(=O)[C@H](Cc2cccc(OCC(=O)O)c2)NC(=O)[C@H](C)N(C)C(=O)[C@H]([C@@H](C)CC)NC(=O)[C@H](Cc2ccccc2)N(C)C(=O)[C@H](Cc2ccc(O)cc2)NC(=O)[C@H](Cc2c[nH]c3ccccc23)NC(=O)[C@H](C)NC(=O)CN(CCCC(=O)O)C(=O)CSC[C@H](C(=O)N2CCC(CCC(N)=O)CC2)NC(=O)[C@H](Cc2ccccc2)N(C)C(=O)[C@H](C)N(C)C1=O` [Myostatin_99_v431] ({CH2CO}-[Gly(N(CH2)3COOH)]AWY[NMeF]I[NMeA][Phe(3-OCH2COOH)][Phe(4-COOH)]R[NMeF][X1][NMeA][NMeF][dC]-{Piperidine(4-CH2CH2CONH2)}; thioether N-15), the inhibition on GDF-11 (setting [3]) and at GDF-11 (setting [4]) was 0% in each case. Also, the inhibition at 0.1 µM at Myostatin (setting [5]) stood at 100%. The inhibition at 0.03 µM on Myostatin (setting [6]) came out at 100%.
For the compound `CCCCCCC[C@@H]1NC(=O)[C@H](Cc2ccccc2)N(C)C(=O)[C@H](CCCNC(=N)N)NC(=O)[C@H](Cc2ccc(C(=O)O)cc2)NC(=O)[C@H](Cc2ccncc2)NC(=O)CN(C)C(=O)[C@H]([C@@H](C)CC)NC(=O)[C@H](Cc2ccccc2)N(C)C(=O)[C@H](Cc2ccc(O)cc2)NC(=O)[C@H](Cc2c[nH]c3ccccc23)NC(=O)[C@H](C)NC(=O)CN(CCOC)C(=O)CSC[C@H](C(=O)O)NC(=O)[C@H](Cc2ccccc2)N(C)C(=O)[C@H](C)N(C)C1=O` [Myostatin_99_v224] ({CH2CO}-[Nme]AWY[NMeF]I[Sar][4Pal][Phe(4-COOH)]R[NMeF][X1][NMeA][NMeF][dC]-OH; thioether N-15), the inhibition at 0.03 µM was determined as 0% on GDF-11 and 96% at Myostatin (setting [1]). For the same compound, the inhibition at 0.1 µM at GDF-11 came to 0%; on Myostatin (setting [2]), 99%.
As for `CC[C@H](C)[C@@H]1NC(=O)[C@H](Cc2ccccc2)N(C)C(=O)[C@H](Cc2ccc(O)cc2)NC(=O)[C@H](Cc2c[nH]c3ccccc23)NC(=O)[C@@H](C)NC(=O)[C@H](C)NC(=O)CSC[C@H](C(N)=O)NC(=O)[C@H](Cc2ccccc2)N(C)C(=O)[C@H](C)N(C)C(=O)[C@H](CC(C)C)NC(=O)[C@H](Cc2ccccc2)N(C)C(=O)[C@H](CCCNC(=N)N)NC(=O)[C@H](Cc2ccc(O)cc2)NC(=O)[C@H](Cc2ccc(O)cc2)NC(=O)CN(C)C1=O` [Myostatin_99_2da_15dc_NH2] ({CH2CO}-A[dA]WY[NMeF]I[Sar]YYR[NMeF]L[NMeA][NMeF][dC]-NH2; thioether N-15), the inhibition at 0.03 µM on GDF-11 came out at 15%; at Myostatin (setting [1]), 94%. Also, the inhibition at 0.1 µM at GDF-11 was determined as 48%; on Myostatin (setting [2]), 98%.
For `CCCCCCC[C@@H]1NC(=O)[C@H](Cc2ccccc2)N(C)C(=O)[C@H](CCCNC(=N)N)NC(=O)[C@H](Cc2ccc(C(=O)O)cc2)NC(=O)[C@H](Cc2cccc(OCC(=O)O)c2)NC(=O)[C@H](C)N(C)C(=O)[C@H]([C@@H](C)CC)NC(=O)[C@H](Cc2ccccc2)N(C)C(=O)[C@H](Cc2ccc(O)cc2)NC(=O)[C@H](Cc2c[nH]c3ccccc23)NC(=O)[C@H](C)NC(=O)CN(CCCC(=O)O)C(=O)[C@H](C)N(C)C(=O)[C@@H](C)NC(=O)[C@H](Cc2ccccc2)N(C)C(=O)[C@H](C)N(C)C1=O` [Myostatin_99_v450] (cyclo(AWY[NMeF]I[NMeA][Phe(3-OCH2COOH)][Phe(4-COOH)]R[NMeF][X1][NMeA][NMeF][dA][NMeA][Gly(N(CH2)3COOH)])), the inhibition at GDF-11 (setting [3]) and at GDF-11 (setting [4]) was 0% throughout. Further, the inhibition at 0.1 µM at Myostatin (setting [5]) was determined as 100%. Moreover, the inhibition at 0.03 µM at Myostatin (setting [6]) is 100%.
